Data on one compound can be found in article PMC9804871, “Effect of Opicapone on Levodopa Pharmacokinetics in Patients with Fluctuating Parkinson's Disease” (Movement Disorders, 2022).

Data set [1] in a line: 12-hour levodopa plasma pharmacokinetics. Format: in vivo, human (patients with PD). How it is done:
The study design is illustrated in Figure 1.
Pharmacokinetic evaluation occurred over 12 hours with sampling every 30 minutes, except for the last sample following each LD dose in the opicapone plus four LD intake regimen, which was sampled at 1 hour. The main pharmacokinetics parameters assessed included maximum observed plasma concentration (Cmax), time to achieve peak plasma levels (tmax), minimum observed plasma concentration (Cmin), plasma elimination half‐life (t1/2), area under the curve (AUC), and fluctuation index (FI; as an expression of peak‐to‐trough fluctuation, Cmax, and Cmin, relative to average concentration [Cavg]). The pharmacokinetics of the LD metabolite 3‐O‐methyldopa (3‐OMD) was also evaluated.
Descriptive statistics were used to summarize the pharmacokinetics parameters for LD and 3‐OMD for each of the three regimens. […] No formal comparison was performed between opicapone regimens.

For data set [2] the following is noted: opicapone pivotal trials; average; cited from earlier work.
[3] abbreviates: opicapone 50 mg added to LD/CD 400/100 mg (both regimens) vs LD/CD 500/125 mg without opicapone.

“Also recorded” adds a separate entry of the source.

Turning to `Cc1c(Cl)c(C)[n+]([O-])c(Cl)c1-c1noc(-c2cc(O)c(O)c([N+](=O)[O-])c2)n1` [opicapone], in data set [1] (setting [3]), the “effect on LD minimal (trough) concentrations (Cmin)” value is on record as “at least doubled; also recorded: twofold increase” and the “effect on LD plasma half-life (t1/2)” value is listed as “at least doubled”. For the same compound, the “impact on time to reach (tmax) maximum LD concentrations” value in data set [1] (opicapone 50 mg added to either LD/CD 400/100 mg regimen) is on record as “no impact”. For the same compound, the “impact on maximal LD concentrations (Cmax)” value in data set [1] (opicapone 50 mg added to either LD/CD 400/100 mg regimen vs five-intake LD/CD 500/125 mg without opicapone) was “no significant impact”. In addition, the “reduction of off time relative to placebo” value in data set [2] is 1 h.
